According to paper PMC5218480 (PLoS ONE, 2017):

Tested on: MV-4-11 cells
Assay: Gene expression microarray analysis (Affymetrix PrimeView) and GSEA
Assay type: cell-based, human
Parameters: RFU PODN (11730768_x_at) / Fold change /veh PODN (11730768_x_at) / RFU LINC00158 (11744669_a_at) / Fold change /veh LINC00158 (11744669_a_at) / RFU DUSP10 (11751237_a_at) / Fold change /veh DUSP10 (11751237_a_at) / RFU ID3 (11757404_x_at) / Fold change /veh ID3 (11757404_x_at) / RFU PLEKHG5 (11737974_s_at) / Fold change /veh PLEKHG5 (11737974_s_at) / RFU LRRC4B (11730491_at) / Fold change /veh LRRC4B (11730491_at) / RFU GIMAP4 (11747438_a_at) / Fold change /veh GIMAP4 (11747438_a_at) / RFU KRT8 (11758183_x_at) / Fold change /veh KRT8 (11758183_x_at) / RFU CNN1 (11734310_a_at) / Fold change /veh CNN1 (11734310_a_at) / RFU VPS37D (11726825_at) / Fold change /veh VPS37D (11726825_at) / RFU C10orf10 (11716522_x_at) / Fold change /veh C10orf10 (11716522_x_at) / RFU KIR2DL2 /// KIR2DL4 /// KIR2DL5A /// KIR2DL5B /// KIR2DS1 /// KIR2DS2 /// KIR2DS3 /// KIR2DS4 /// KIR3DL3 /// KIR3DL3 /// KIR3DS1 (11738374_at) / Fold change /veh KIR2DL2 /// KIR2DL4 /// KIR2DL5A /// KIR2DL5B /// KIR2DS1 /// KIR2DS2 /// KIR2DS3 /// KIR2DS4 /// KIR3DL3 /// KIR3DL3 /// KIR3DS1 (11738374_at) / RFU C1QL1 (11718748_at) / Fold change /veh C1QL1 (11718748_at) / RFU TMPRSS4 (11747572_a_at) / Fold change /veh TMPRSS4 (11747572_a_at) / RFU HAMP (11756126_x_at) / Fold change /veh HAMP (11756126_x_at) / RFU RNFT2 (11725882_a_at) / Fold change /veh RNFT2 (11725882_a_at) / RFU NR4A2 (11747474_a_at) / Fold change /veh NR4A2 (11747474_a_at) / RFU ABCC12 (11746883_a_at) / Fold change /veh ABCC12 (11746883_a_at) / RFU TMEM136 (11760407_x_at) / Fold change /veh TMEM136 (11760407_x_at) / RFU CLDN22 /// WWC2 (11732394_at) / Fold change /veh CLDN22 /// WWC2 (11732394_at) / RFU HLA-DPB1 (11760878_x_at) / Fold change /veh HLA-DPB1 (11760878_x_at) / RFU SPINT1 (11716480_a_at) / Fold change /veh SPINT1 (11716480_a_at) / RFU GAP43 (11754022_s_at) / Fold change /veh GAP43 (11754022_s_at) / RFU A4GNT (11735810_at) / Fold change /veh A4GNT (11735810_at) / RFU PRB3 (11715151_x_at) / Fold change /veh PRB3 (11715151_x_at) / RFU TUBB4B (11761932_at) / Fold change /veh TUBB4B (11761932_at) / RFU CAPN14 (11732068_a_at) / Fold change /veh CAPN14 (11732068_a_at) / RFU TMCC2 (11721928_a_at) / Fold change /veh TMCC2 (11721928_a_at) / RFU IRGQ (11745062_a_at) / Fold change /veh IRGQ (11745062_a_at) / RFU FAM174B (11720279_a_at) / Fold change /veh FAM174B (11720279_a_at) / RFU TMPRSS4 (11748680_a_at) / Fold change /veh TMPRSS4 (11748680_a_at) / RFU FAM212B (11763350_a_at) / Fold change /veh FAM212B (11763350_a_at) / RFU PLEKHG5 (11743358_a_at) / Fold change /veh PLEKHG5 (11743358_a_at) / RFU ZSCAN30 (11745921_a_at) / Fold change /veh ZSCAN30 (11745921_a_at) / RFU CMKLR1 (11741424_a_at) / Fold change /veh CMKLR1 (11741424_a_at) / RFU LOC101060620 /// MAPK8IP1 (11723275_at) / Fold change /veh LOC101060620 /// MAPK8IP1 (11723275_at) / RFU SPTSSB (11747773_x_at) / Fold change /veh SPTSSB (11747773_x_at) / RFU PRSS12 (11739890_at) / Fold change /veh PRSS12 (11739890_at) / RFU BIN1 (11741810_x_at) / Fold change /veh BIN1 (11741810_x_at) / RFU WNT11 (11732464_a_at) / Fold change /veh WNT11 (11732464_a_at) / RFU C10orf10 (11716521_a_at) / Fold change /veh C10orf10 (11716521_a_at) / RFU C5orf56 (11738089_at) / Fold change /veh C5orf56 (11738089_at) / RFU CYB561 (11721691_x_at) / Fold change /veh CYB561 (11721691_x_at) / RFU ANKRD19P (11752326_a_at) / Fold change /veh ANKRD19P (11752326_a_at) / RFU OR2T12 /// OR2T33 /// OR2T8 (11738714_s_at) / Fold change /veh OR2T12 /// OR2T33 /// OR2T8 (11738714_s_at) / RFU VCAN (11748164_a_at) / Fold change /veh VCAN (11748164_a_at) / RFU JSRP1 (11732532_at) / Fold change /veh JSRP1 (11732532_at) / RFU KRTAP10-11 (11738290_x_at) / Fold change /veh KRTAP10-11 (11738290_x_at) / RFU MYO3A (11730013_a_at) / Fold change /veh MYO3A (11730013_a_at) / RFU EBF3 (11725865_a_at) / Fold change /veh EBF3 (11725865_a_at) / RFU CAMK2N1 (11719241_x_at) / Fold change /veh CAMK2N1 (11719241_x_at) / RFU C5orf56 (11738088_a_at) / Fold change /veh C5orf56 (11738088_a_at) / RFU OLFML3 (11715873_a_at) / Fold change /veh OLFML3 (11715873_a_at) / RFU LOC100653217 /// NTM (11731650_a_at) / Fold change /veh LOC100653217 /// NTM (11731650_a_at) / RFU MAPK11 (11762145_a_at) / Fold change /veh MAPK11 (11762145_a_at) / RFU FIZ1 (11724087_x_at) / Fold change /veh FIZ1 (11724087_x_at) / RFU OASL (11726364_x_at) / Fold change /veh OASL (11726364_x_at) / RFU SOX15 (11748057_x_at) / Fold change /veh SOX15 (11748057_x_at) / RFU CD79A (11719716_a_at) / Fold change /veh CD79A (11719716_a_at) / RFU HIST1H1D (11736915_at) / Fold change /veh HIST1H1D (11736915_at) / RFU CASKIN2 (11723855_a_at) / Fold change /veh CASKIN2 (11723855_a_at) / RFU LOC730098 (11760151_x_at) / Fold change /veh LOC730098 (11760151_x_at) / RFU OR4N2 (11742367_at) / Fold change /veh OR4N2 (11742367_at) / RFU PRRT2 (11749266_a_at) / Fold change /veh PRRT2 (11749266_a_at) / RFU SNX32 (11753110_a_at) / Fold change /veh SNX32 (11753110_a_at) / RFU CDHR5 (11726645_a_at) / Fold change /veh CDHR5 (11726645_a_at) / RFU RCAN1 (11760418_a_at) / Fold change /veh RCAN1 (11760418_a_at) / RFU FAM167A (11723789_a_at) / Fold change /veh FAM167A (11723789_a_at) / RFU FAM26E (11764081_at) / Fold change /veh FAM26E (11764081_at) / RFU ISYNA1 (11749810_s_at) / Fold change /veh ISYNA1 (11749810_s_at) / RFU ACY1 (11761880_at) / Fold change /veh ACY1 (11761880_at) / RFU 11764098_at / Fold change /veh 11764098_at / RFU SAMD14 (11745864_x_at) / Fold change /veh SAMD14 (11745864_x_at) / RFU NPB (11741838_a_at) / Fold change /veh NPB (11741838_a_at) / RFU TMPRSS6 (11731388_a_at) / Fold change /veh TMPRSS6 (11731388_a_at) / RFU KRTAP10-2 (11738614_at) / Fold change /veh KRTAP10-2 (11738614_at) / RFU ARHGAP8 /// PRR5-ARHGAP8 (11727945_x_at) / Fold change /veh ARHGAP8 /// PRR5-ARHGAP8 (11727945_x_at) / RFU KRTAP5-7 /// NADSYN1 (11734609_at) / Fold change /veh KRTAP5-7 /// NADSYN1 (11734609_at) / RFU RASL12 (11751679_a_at) / Fold change /veh RASL12 (11751679_a_at) / RFU CDKN2B (11736163_a_at) / Fold change /veh CDKN2B (11736163_a_at) / RFU PRF1 (11729649_at) / Fold change /veh PRF1 (11729649_at) / RFU, ZNF638 /// ZNF638-IT1 / Fold change vs veh, ZNF638 /// ZNF638-IT1 / RFU, PANK3 / Fold change vs veh, PANK3 / RFU, SH3YL1 / Fold change vs veh, SH3YL1 / RFU, ZEB2 / Fold change vs veh, ZEB2 / RFU, NRIP1 / Fold change vs veh, NRIP1 / RFU, PTTG1IP / Fold change vs veh, PTTG1IP / RFU, CAPN2 / Fold change vs veh, CAPN2 / RFU, MED14 / Fold change vs veh, MED14 / RFU, SNORA58 / Fold change vs veh, SNORA58 / RFU, C1orf63 / Fold change vs veh, C1orf63 / RFU, LRRFIP1 / Fold change vs veh, LRRFIP1 / RFU, NDUFAF7 / Fold change vs veh, NDUFAF7 / RFU, SLC12A2 / Fold change vs veh, SLC12A2 / RFU, IBTK / Fold change vs veh, IBTK / RFU, ESF1 / Fold change vs veh, ESF1 / Fold change vs veh, TMEM50B / RFU, TAOK1 / Fold change vs veh, TAOK1 / RFU, ACBD3 / Fold change vs veh, ACBD3 / RFU, TMA16 / Fold change vs veh, TMA16 / RFU, RWDD3 / Fold change vs veh, RWDD3 / RFU, BCAT1 / Fold change vs veh, BCAT1 / RFU, EDEM3 / Fold change vs veh, EDEM3 / RFU, TMEM33 / Fold change vs veh, TMEM33 / RFU, WDR75 / Fold change vs veh, WDR75 / RFU, AHCTF1 / Fold change vs veh, AHCTF1 / RFU, TFRC / Fold change vs veh, TFRC / RFU, ZDHHC17 / Fold change vs veh, ZDHHC17 / RFU, NOM1 / Fold change vs veh, NOM1 / RFU, ARL8B / Fold change vs veh, ARL8B / RFU, ZBTB11 / Fold change vs veh, ZBTB11 / RFU, TAMM41 / Fold change vs veh, TAMM41 / RFU, KIAA1704 /// LOC100996395 / Fold change vs veh, KIAA1704 /// LOC100996395 / RFU, ING1 / Fold change vs veh, ING1 / RFU, TRMT61B / Fold change vs veh, TRMT61B / RFU, FUBP3 / Fold change vs veh, FUBP3 / RFU, TP53 / Fold change vs veh, TP53 / RFU, TNKS2 / Fold change vs veh, TNKS2 / RFU, ZFP14 / Fold change vs veh, ZFP14 / RFU, ACTR2 / Fold change vs veh, ACTR2 / RFU, PPP3R1 / Fold change vs veh, PPP3R1 / RFU, PIK3R1 / Fold change vs veh, PIK3R1 / RFU, HNRNPA1 / Fold change vs veh, HNRNPA1 / RFU, RNF170 / Fold change vs veh, RNF170 / RFU, ZNF28 / Fold change vs veh, ZNF28 / RFU, RNGTT / Fold change vs veh, RNGTT / RFU, OGT / Fold change vs veh, OGT / RFU, BRD1 / Fold change vs veh, BRD1 / RFU, MARS / Fold change vs veh, MARS / RFU, ZNF655 / Fold change vs veh, ZNF655 / RFU, FAHD1 / Fold change vs veh, FAHD1 / RFU, BDP1 / Fold change vs veh, BDP1 / RFU, LRRCC1 / Fold change vs veh, LRRCC1 / RFU, ARID1A / Fold change vs veh, ARID1A / RFU, ZNF146 / Fold change vs veh, ZNF146 / RFU, ZNF330 / Fold change vs veh, ZNF330 / RFU, GPN3 / Fold change vs veh, GPN3 / RFU, C9orf123 / Fold change vs veh, C9orf123 / RFU, N4BP2L2 / Fold change vs veh, N4BP2L2 / RFU, ARFIP1 / Fold change vs veh, ARFIP1 / RFU, FAM179B / Fold change vs veh, FAM179B / RFU, BCL10 / Fold change vs veh, BCL10 / RFU, UHRF1BP1L / Fold change vs veh, UHRF1BP1L / RFU, BET1 / Fold change vs veh, BET1 / RFU, CNOT2 / Fold change vs veh, CNOT2 / RFU, ZNF268 / Fold change vs veh, ZNF268 / Fold change vs veh, ZNF507 / RFU, DGCR2 / Fold change vs veh, DGCR2 / RFU, WDSUB1 / Fold change vs veh, WDSUB1 / Fold change vs veh, HSP90B1 /// MIR3652 / RFU, ADSS / Fold change vs veh, ADSS / RFU, GK / Fold change vs veh, GK / RFU, ZNF148 / Fold change vs veh, ZNF148 / RFU, TAF9 / Fold change vs veh, TAF9 / RFU, SLC1A5 / Fold change vs veh, SLC1A5 / RFU, SLMO2 / Fold change vs veh, SLMO2 / RFU, ABCC4 / Fold change vs veh, ABCC4 / RFU, LOC101060439 /// RAP1B / Fold change vs veh, LOC101060439 /// RAP1B / RFU, RFX7 / Fold change vs veh, RFX7 / RFU, GTPBP10 / Fold change vs veh, GTPBP10 / RFU, CNEP1R1 / Fold change vs veh, CNEP1R1 / RFU, BIVM-ERCC5 /// ERCC5 / Fold change vs veh, BIVM-ERCC5 /// ERCC5 / RFU, ILF3 / Fold change vs veh, ILF3 / RFU 11762660_at / Fold change /veh 11762660_at / RFU VCAN (11757783_s_at) / Fold change /veh VCAN (11757783_s_at) / RFU DDX43 (11728927_at) / Fold change /veh DDX43 (11728927_at) / RFU KRT8 (11758188_x_at) / Fold change /veh KRT8 (11758188_x_at) / RFU NKD1 (11759106_at) / Fold change /veh NKD1 (11759106_at) / RFU SRD5A1 (11742802_a_at) / Fold change /veh SRD5A1 (11742802_a_at) / RFU TPSAB1 /// TPSB2 (11721975_s_at) / Fold change /veh TPSAB1 /// TPSB2 (11721975_s_at) / RFU GSTM3 (11746129_a_at) / Fold change /veh GSTM3 (11746129_a_at) / RFU IL23R (11737362_x_at) / Fold change /veh IL23R (11737362_x_at) / RFU TMEM51 (11727254_a_at) / Fold change /veh TMEM51 (11727254_a_at) / RFU PIWIL2 (11732686_x_at) / Fold change /veh PIWIL2 (11732686_x_at) / RFU ORM1 (11744905_x_at) / Fold change /veh ORM1 (11744905_x_at) / RFU CCDC152 (11743942_at) / Fold change /veh CCDC152 (11743942_at) / RFU ECM1 (11717891_a_at) / Fold change /veh ECM1 (11717891_a_at) / RFU IL23R (11748794_a_at) / Fold change /veh IL23R (11748794_a_at) / RFU TNFAIP8L3 (11732012_x_at) / Fold change /veh TNFAIP8L3 (11732012_x_at) / RFU MBOAT4 (11741988_at) / Fold change /veh MBOAT4 (11741988_at) / RFU 11764193_at / Fold change /veh 11764193_at / RFU TMEM53 (11763286_at) / Fold change /veh TMEM53 (11763286_at) / RFU MAGEB2 (11727129_at) / Fold change /veh MAGEB2 (11727129_at) / RFU TMEM200A (11744735_a_at) / Fold change /veh TMEM200A (11744735_a_at) / RFU CCDC152 (11751479_a_at) / Fold change /veh CCDC152 (11751479_a_at) / RFU FAM211A (11726209_a_at) / Fold change /veh FAM211A (11726209_a_at) / RFU RGS16 (11746705_a_at) / Fold change /veh RGS16 (11746705_a_at) / RFU VCAN (11755009_s_at) / Fold change /veh VCAN (11755009_s_at) / RFU RHOB (11743442_s_at) / Fold change /veh RHOB (11743442_s_at) / RFU RGS16 (11720943_a_at) / Fold change /veh RGS16 (11720943_a_at) / RFU RGS16 (11720944_at) / Fold change /veh RGS16 (11720944_at) / RFU, VPS4B / Fold change vs veh, VPS4B / RFU, CREB1 / Fold change vs veh, CREB1 / RFU, DNAJC13 / Fold change vs veh, DNAJC13 / RFU, GNAQ / Fold change vs veh, GNAQ / RFU, CDK5R1 / Fold change vs veh, CDK5R1 / RFU, ZRANB3 / Fold change vs veh, ZRANB3 / RFU, CUL4A / Fold change vs veh, CUL4A / RFU, CCNY / Fold change vs veh, CCNY / RFU, UFL1 / Fold change vs veh, UFL1 / RFU, COG3 / Fold change vs veh, COG3 / RFU, DIAPH2 / Fold change vs veh, DIAPH2 / RFU, SKA2 / Fold change vs veh, SKA2 / RFU, AFF3 / Fold change vs veh, AFF3 / RFU, LMF1 / Fold change vs veh, LMF1 / RFU, IPO11 / Fold change vs veh, IPO11 / RFU, DFFB / Fold change vs veh, DFFB / RFU, FOXP1 / Fold change vs veh, FOXP1 / RFU, CARD8 / Fold change vs veh, CARD8 / RFU, STRN3 / Fold change vs veh, STRN3 / RFU, ADK / Fold change vs veh, ADK / RFU, RASSF2 / Fold change vs veh, RASSF2 / RFU, WIPF1 / Fold change vs veh, WIPF1 / RFU, LARP1B / Fold change vs veh, LARP1B / RFU, RASA1 / Fold change vs veh, RASA1 / RFU, RB1 / Fold change vs veh, RB1 / RFU, PPFIA1 / Fold change vs veh, PPFIA1 / RFU, MAT2A / Fold change vs veh, MAT2A / RFU, CCT5 / Fold change vs veh, CCT5 / RFU, WDR92 / Fold change vs veh, WDR92 / RFU, CUX1 / Fold change vs veh, CUX1 / RFU, TTC7A / Fold change vs veh, TTC7A / RFU, TMEM135 / Fold change vs veh, TMEM135 / RFU, DEPTOR / Fold change vs veh, DEPTOR / RFU, CPM / Fold change vs veh, CPM / RFU, DNAJB6 / Fold change vs veh, DNAJB6 / RFU, CACNA2D3 / Fold change vs veh, CACNA2D3 / RFU, DTX4 / Fold change vs veh, DTX4 / RFU, TFCP2 / Fold change vs veh, TFCP2 / RFU, GMCL1 /// GMCL1P1 / Fold change vs veh, GMCL1 /// GMCL1P1 / RFU, AEBP2 / Fold change vs veh, AEBP2 / RFU, SNHG1 /// SNORD22 /// SNORD25 /// SNORD26 /// SNORD27 /// SNORD28 /// SNORD29 /// SNORD31 / Fold change vs veh, SNHG1 /// SNORD22 /// SNORD25 /// SNORD26 /// SNORD27 /// SNORD28 /// SNORD29 /// SNORD31 / Fold change (Aza/veh), C12orf56 (ProbeSet 11735607_a_at) / Fold change (ACY-1035/veh), C12orf56 (ProbeSet 11735607_a_at) / Fold change (Aza/veh), FGFR1OP (ProbeSet 11751329_s_at) / Fold change (ACY-1035/veh), FGFR1OP (ProbeSet 11751329_s_at) / Fold change (Aza/veh), VPS36 (ProbeSet 11739960_a_at) / Fold change (ACY-1035/veh), VPS36 (ProbeSet 11739960_a_at) / RFU SYPL1 (11715823_x_at) / Fold change /veh SYPL1 (11715823_x_at) / RFU IGFBP7 (11715501_s_at) / Fold change /veh IGFBP7 (11715501_s_at) / RFU REEP3 (11722064_at) / Fold change /veh REEP3 (11722064_at) / RFU IGLL1 (11728026_x_at) / Fold change /veh IGLL1 (11728026_x_at): dose or concentration left out as unconfirmed
Conditions: ProbeSet 11717308_a_at; LIST B

## Nc1ncn([C@@H]2O[C@H](CO)[C@@H](O)[C@H]2O)c(=O)n1 [azacitidine]
  RFU, WDR75: 348.11 RFU
